In patent US20130158362A1 (INFACARE PHARMACEUTICAL CORPORATION, priority 2011, published 2013):
“And” between values parts separate entries of the source, which are not always exact repeats. Equal entries are not always repeated. “Also recorded” adds a separate entry of the source. Marks after values point to notes of the source that are not given here.

How the values were obtained:
[1] = test system: term and late preterm subjects with hyperbilirubinemia; assay: Phase 2b trial: need for phototherapy/exchange transfusion, time to PT, duration of PT, time to hospital discharge; assay type: in vivo, human; details: for Time to discharge, Mean: from treatment; for Time to PT (range): subjects who needed PT
Protocol: PT was standardized for this study. TSB levels were initially assessed at 6 hours after IM injection to determine if PT was necessary. If the subject met the AAP Guidelines for starting PT, PT was initiated, and if the criteria were not met at the time, the subjects continued in the study until the next TSB level assessment (at 12, 24, and 48 hours following IMP injection). If, at any of these time points, the subject met the criteria for initiation of PT per AAP Guidelines, then PT was started.
In subjects receiving PT, determinations to assess whether or not PT was still required were done every 6 hours (±15 min); if the TSB was declining over 2 of these 6 hour assessments, TSB assessments could be done every 12 hours (±15 min). PT was stopped after 1 declining TSB assessment had been reviewed and the TSB level had declined to at least 2 mg/dL below the threshold for PT (as determined by the age of the subject when the blood was collected). As part of the clinical management of the subject, once PT was stopped, a TSB assessment was performed at approximately 6 hours later to assure there was no rebound in the bilirubin level. If the TSB rebounded above the threshold for PT, further clinical management was at the discretion of the principal investigator. After completion of Visit 4 (Day 30), parents/guardians were asked to enroll the completed subjects into a long term safety follow-up study.
The Secondary Efficacy Endpoints were the change from baseline in unadjusted TSB at 48 hours after treatment, change from baseline in adjusted and unadjusted TSB at various other time points after treatment, percent change from baseline in unadjusted TSB, proportion of subjects who require PT/exchange transfusion (ET), time to PT/ET, duration of PT and time to hospital discharge.
Analysis of Efficacy Parameters: The primary efficacy analysis applied the analysis of covariance (ANCOVA) method to determine if there was a significant difference between treatment groups in change in adjusted TSB levels from baseline to 48 hours post baseline after controlling for the effects of gestational age and adjusted baseline TSB levels. If assumptions of ANCOVA appeared to be violated, a Wilcoxon rank-sum test could be performed instead. Time-to-event variables were analyzed using the Kaplan-Meier method, and Kaplan-Meier survival curves were presented.

[2] = Phase 2b trial: pharmacokinetics of stannsoporfin in plasma after IM injection; assay type: in vivo, human
Excerpt: Pharmacokinetic Assessments: Subjects were stratified into 2 groups having different sampling times to better characterize the PK curves.

[3] = test system: term and late preterm subjects with hyperbilirubinemia; assay: Phase 2b trial: hematology and chemistry laboratory tests (platelet counts); assay type: in vivo, human; details: for Platelet counts (mean), Delta: baseline to 48 hours
Excerpt: (§1) Safety measurements included adverse events (AEs), hematology and chemistry laboratory tests, vital sign measurements, physical examinations, dermatological assessments, hearing assessments, ophthalmological assessments, neurological assessments, and quantitative electrocardiograms (ECGs).
(§2) All other safety endpoints (vital sign measurements, hematology and chemistry laboratory tests, physical examination results, ECG results, etc.) were summarized by treatment group and visit. In addition, shift tables were generated for laboratory results comparing postbaseline results with baseline. Similar shift tables were generated for results of vital sign measurements.

[4] = test system: term and late preterm subjects with hyperbilirubinemia; assay: Phase 2b trial: dermatological assessment (rash); assay type: in vivo, human
Excerpt: In some embodiments, dermatological examinations comprise the identification of photosensitive reactions if any. Photosensitive reaction may occur with metalloporphyrins and broad spectrum light. Photosensitive reactions include skin rashes.
as §1

[5] = test system: term and late preterm subjects with hyperbilirubinemia; assay: Phase 2b trial: quantitative electrocardiograms (QT); assay type: in vivo, human
Excerpt: In some embodiments, 12-Lead ECGs measurements comprise clarification of a cardiovascular event, measurement of cardiac intervals and morphological assessment, measurements of the RR, PR, QRS, and QT interval durations and combinations thereof. In some embodiments, Bazett's correction of the QT interval (QTcB), Fridericia's correction of the QT interval (QTcF), and heart rate (HR) can be derived from 12-Lead ECGs measurements.
as §1, §2

heme oxygenase = details: cited from earlier work
[6] = 4.5 mg dose, baseline to 48 hours post dose

tin IV mesoporphyrin IX dichloride [Stannsoporfin]
maximum duration of PT ([1]; 1.5 mg/kg): 1426 min | Duration of PT ([1]; 1.5 mg/kg IM): about 20 hours | Time to discharge, Range ([1]; 1.5 mg/kg IM): 14.6 to 143.3 h | subjects who received/required phototherapy (PT), n (%) ([1]; 1.5 mg/kg IM, N = 17): 3 (17.6%) | Time to discharge, Mean ([1]; 1.5 mg/kg IM): 38 h | Time to PT (range) ([1]; 1.5 mg/kg IM): 5.2 to 17.8 h | maximum duration of PT ([1]; 3 mg/kg): 1140 min | Duration of PT ([1]; 3.0 mg/kg IM): about 14 hours | Time to discharge, Range ([1]; 3.0 mg/kg IM): 11.5 to 77.0 h | subjects who received/required phototherapy (PT), n (%) ([1]; 3.0 mg/kg IM, N = 18): 6 (33.3%) | Time to discharge, Mean ([1]; 3.0 mg/kg IM): 42.8 h | Time to PT (range) ([1]; 3.0 mg/kg IM): 7.2 to 15.2 h | maximum duration of PT ([1]; 4.5 mg/kg): 990 min | Duration of PT ([1]; 4.5 mg/kg IM): about 14 hours | Time to discharge, Range ([1]; 4.5 mg/kg IM): 15 to 405.3 h | subjects who received/required phototherapy (PT), n (%) ([1]; 4.5 mg/kg IM, N = 8): 2 (25%) | Time to discharge, Mean ([1]; 4.5 mg/kg IM): 48.3 h | Time to PT (range) ([1]; 4.5 mg/kg IM): 7.3 to 8.8 h | time to hospital discharge compared to placebo ([1]; 4.5 mg/kg, largely due to 1 subject with meningitis): significantly greater | exchange transfusions (ET) required ([1]; all dose groups): no exchange transfusions; also recorded: no subjects requiring ET | readmission to hospital ([1]; all stannsoporfin dose groups): No subjects who received stannsoporfin were readmitted | treated infants requiring subsequent phototherapy ([1]; single 1.5 mg/kg dose): 17.6% | T1/2 ([2]; 1.5 mg/kg IM): 5.46 h | Tmax ([2]; 1.5 mg/kg IM): 1.87 h | T1/2 ([2]; 3.0 mg/kg IM): 10.7 h | Tmax ([2]; 3.0 mg/kg IM): 1.52 h | T1/2 ([2]; 4.5 mg/kg IM): 9.86 h | Tmax ([2]; 4.5 mg/kg IM): 2.3 h | T1/2, Mean of the three doses ([2]; 1.5, 3.0 and 4.5 mg/kg IM): 8.6 h | Tmax, Mean of the three doses ([2]; 1.5, 3.0 and 4.5 mg/kg IM): 1.89 h | increase in Cmax with dose ([2]; 1.5 to 4.5 mg/kg dose range): dose-proportional increase | elimination half-life ([2]; IM injection, final data): approximately 10 hours | time of peak plasma concentrations post-treatment ([2]; IM injection, final data): ≤ 1 h | time plasma stannsoporfin concentrations measurable post treatment ([2]; all subjects at doses of 3 mg/kg and above): at least 48 hours | intersubject variability in Cmax and AUCs ([2]; neonates, IM): ≤ 30% | Platelet counts (mean) ([3]; 1.5 mg/kg IM, 48 hours): 234.000 | Platelet counts (mean) ([3]; 1.5 mg/kg IM, Day 14): 477,000 | Platelet counts (mean), Delta ([3]; 1.5 mg/kg IM): −31,000 | Platelet counts (mean) ([3]; 3.0 mg/kg IM, 48 hours): 220,000 | Platelet counts (mean) ([3]; 3.0 mg/kg IM, Day 14): 453,000 | Platelet counts (mean), Delta ([3]; 3.0 mg/kg IM): −43,000 | Platelet count, individual subjects, % Change [3, 6]: 68.6% and 47.1% and 60.8% and 2.9% and 8.4% and 41.0% | Platelet count, individual subjects, Delta [3, 6]: −153,000 and −113,000 and −141,000 and −11,000 and −22,000 and −128,000 | Platelet counts (mean) ([3]; 4.5 mg/kg IM, 48 hours): 180,000 | Platelet counts (mean) ([3]; 4.5 mg/kg IM, Day 14): 441,000 | Platelet counts (mean), Delta ([3]; 4.5 mg/kg IM): −85,000 | Platelet count, individual subjects ([3]; 4.5 mg/kg dose, 48 hours post dose (n = 6)): 70,000* and 127,000† and 91,000** and 368,000 and 240,000 and 184,000† | platelets at 48 hours ([3]; 4.5 mg/kg, all subjects, normalized by Day 14): moderate drops in platelets | Chemistries, liver function tests and renal function tests ([3]; 1.5 to 4.5 mg/kg IM): normal | Platelet counts from baseline to 48 hours after administration ([3]; all stannsoporfin doses, placebo remained stable): decreased | average platelet counts by day 14 ([3]; all test groups): returned to the normal range | Rash and PT, n (% of those with a rash) ([4]; 1.5 mg/kg IM): 2 (66.7%) | Subjects with any rash, n (%) ([4]; 1.5 mg/kg IM): 3 (17.6%) | types of rashes observed ([4]; 1.5 mg/kg IM): Contusion; also recorded: Diaper Dermatitis; also recorded: PT Induced rash*; also recorded: Desquamation; also recorded: Contact Dermatitis | Rash and PT, n (% of those with a rash) ([4]; 3.0 mg/kg IM): 3 (37.5%) | Subjects with any rash, n (%) ([4]; 3.0 mg/kg IM): 8 (44.4%) | types of rashes observed ([4]; 3.0 mg/kg IM): Neonatal Acne; also recorded: Erythema; also recorded: Seborrhea; also recorded: Diaper rash; also recorded: Flushing | Rash and PT, n (%) ([4]; 4.5 mg/kg IM): 1 (12.5%) | Subjects with any rash, n (%) ([4]; 4.5 mg/kg IM): 1 (13.3%) | types of rashes observed ([4]; 4.5 mg/kg IM): Erythema ** | QT prolongation ([5]; 1.5 to 4.5 mg/kg IM): no QT prolongation | effect on heart rate, PR interval, RR interval, QRS complexes and QT interval ([5]; 1.5 to 4.5 mg/kg IM): no effect | ECG results compared to the placebo group ([5]; final data): no dose-related trends or marked differences | inhibition of heme oxygenase (heme oxygenase): potent competitive inhibitor
